Data set [1] addresses T1, Solute carrier organic anion transporter family member 1B3 (Homo sapiens, UniProt Q9NPD5).
T1 sequence (Q9NPD5 whole entry): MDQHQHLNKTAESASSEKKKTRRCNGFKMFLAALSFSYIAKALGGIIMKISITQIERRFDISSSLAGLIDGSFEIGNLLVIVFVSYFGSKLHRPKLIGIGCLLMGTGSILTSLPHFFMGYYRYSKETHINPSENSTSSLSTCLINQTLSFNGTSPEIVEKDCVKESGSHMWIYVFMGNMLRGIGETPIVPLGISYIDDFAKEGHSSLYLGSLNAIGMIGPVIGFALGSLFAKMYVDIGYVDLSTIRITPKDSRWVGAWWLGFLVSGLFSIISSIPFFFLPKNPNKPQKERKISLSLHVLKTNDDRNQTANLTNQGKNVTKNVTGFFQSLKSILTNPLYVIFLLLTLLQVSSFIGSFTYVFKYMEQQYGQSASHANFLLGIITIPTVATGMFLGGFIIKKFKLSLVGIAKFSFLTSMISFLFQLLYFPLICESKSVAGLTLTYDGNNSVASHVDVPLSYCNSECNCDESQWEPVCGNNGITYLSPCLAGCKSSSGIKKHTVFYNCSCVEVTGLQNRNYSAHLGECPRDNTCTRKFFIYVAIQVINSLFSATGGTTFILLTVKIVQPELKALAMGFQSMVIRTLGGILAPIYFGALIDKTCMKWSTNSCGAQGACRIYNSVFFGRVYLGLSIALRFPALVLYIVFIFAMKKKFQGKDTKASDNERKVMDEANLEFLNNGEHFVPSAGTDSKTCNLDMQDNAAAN
Particulars: chinese hamster, cho, 10 µM.

The target of data set [2] is T2, Solute carrier organic anion transporter family member 1B1 (Homo sapiens, UniProt Q9Y6L6).
T2 sequence (Q9Y6L6 whole entry): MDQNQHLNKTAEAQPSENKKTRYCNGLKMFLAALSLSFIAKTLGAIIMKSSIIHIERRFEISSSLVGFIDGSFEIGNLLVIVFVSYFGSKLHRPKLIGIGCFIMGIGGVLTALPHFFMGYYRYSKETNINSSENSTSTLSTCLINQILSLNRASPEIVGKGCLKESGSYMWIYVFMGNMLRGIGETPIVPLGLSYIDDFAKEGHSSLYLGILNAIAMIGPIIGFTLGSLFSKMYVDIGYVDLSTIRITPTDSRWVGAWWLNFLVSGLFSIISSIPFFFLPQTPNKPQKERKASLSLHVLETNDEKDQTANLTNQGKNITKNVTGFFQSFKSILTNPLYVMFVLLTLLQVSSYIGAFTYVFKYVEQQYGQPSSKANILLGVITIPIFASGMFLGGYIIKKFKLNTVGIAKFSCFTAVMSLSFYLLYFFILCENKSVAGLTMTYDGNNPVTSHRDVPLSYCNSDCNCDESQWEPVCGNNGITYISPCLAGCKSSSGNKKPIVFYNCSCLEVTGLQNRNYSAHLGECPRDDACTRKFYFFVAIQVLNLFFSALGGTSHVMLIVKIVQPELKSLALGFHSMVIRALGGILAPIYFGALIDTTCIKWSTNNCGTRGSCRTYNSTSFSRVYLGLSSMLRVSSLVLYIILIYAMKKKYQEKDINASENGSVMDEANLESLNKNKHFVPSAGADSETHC
The following applies: chinese hamster, cho, 10 µM.

Our source for the residual activity values is ChEMBL document CHEMBL3039007, “Structure-based identification of OATP1B1/3 inhibitors” (Mol Pharmacol, 2013).

SMILES strings stand for the structures.

As a reminder, the residual activity is the signal under treatment as a percentage of the control signal. On to `CNC(=O)Oc1ccc2c(c1)[C@]1(C)CCN(C)[C@@H]1N2C` [PHYSOSTIGMINE], for which the residual activity in data set [1] is listed as 80.76%; in data set [2], 78.13%.
The like results for `CC(C)(O)[C@@H]1[C@H]2OC(=O)[C@@H]1[C@]1(O)C[C@H]3O[C@]34C(=O)O[C@H]2[C@]14C` [PICROTIN] were, in that order, 89.14% and 88.44%.
`C=C(C)[C@@H]1[C@H]2OC(=O)[C@@H]1[C@]1(O)C[C@H]3O[C@]34C(=O)O[C@H]2[C@]14C` [PICROTOXININ]: the residual activity in data set [1] was 101.9%; in data set [2], 102.7%.
In the case of `CC[C@@H]1C(=O)OC[C@@H]1Cc1cncn1C.O=[N+]([O-])O` [PILOCARPINE NITRATE], the residual activity was found to be 95.87% in data set [1] and 82.84% in data set [2].
`CN1CCC(=C2c3ccccc3Sc3ccccc32)CC1.O=C(O)/C=C\C(=O)O` [PIMETHIXENE MALEATE]: the residual activity in data set [1] stood at 104.8%; in data set [2], 83.52%.
For `O=c1[nH]c2ccccc2n1C1CCN(CCCC(c2ccc(F)cc2)c2ccc(F)cc2)CC1` [PIMOZIDE], the residual activity in data set [1] came out at 121.7%; in data set [2], 167.9%.
In the same order, the values of `COc1c(OC)c2occc2c2oc(=O)ccc12` [PIMPINELLIN] are 103.2% and 104.9%.
The like results for `CC(N/C(=N\C#N)Nc1ccncc1)C(C)(C)C` (configuration not stated) [PINACIDIL ANHYDROUS] were, in that order, 90.66% and 96.43%.
The like results for `O=C1C[C@@H](c2ccccc2)Oc2cc(O)cc(O)c21` [PINOCEMBRIN] were, in that order, 97.25% and 202%.
Turning to `Oc1cc(O)cc(/C=C/c2ccccc2)c1` [PINOSYLVIN], the residual activity in data set [1] was 114.6%; in data set [2] it was 133.5%.
`CCc1ccc(CCOc2ccc(CC3SC(=O)NC3=O)cc2)nc1.Cl` (configuration not stated) [PIOGLITAZONE HYDROCHLORIDE]: the residual activity in data set [1] came to 88.74%; in data set [2], 122.7%.
For the molecule `CCn1cc(C(=O)O)c(=O)c2cnc(N3CCNCC3)nc21` [PIPEMIDIC ACID], the residual activity in data set [1] came to 131.1%; in data set [2], 111.8%.
The like results for `CC[N+]1(C)CCCC(OC(=O)C(O)(c2ccccc2)c2ccccc2)C1.[Br-]` (configuration not stated) [PIPENZOLATE BROMIDE] were, in that order, 86.01% and 70.99%.
In the same order, the values of `C1CNCCN1` [PIPERAZINE] are 102.1% and 77.78%.
With `CCN1CCCC(OC(=O)C(c2ccccc2)c2ccccc2)C1.Cl` (configuration not stated) [PIPERIDOLATE HYDROCHLORIDE], the figures for the residual activity in data set [1] and in data set [2] were 96% and 65.65%, respectively.
For the molecule `O=C(/C=C/C=C/c1ccc2c(c1)OCO2)N1CCCCC1` [PIPERINE], the residual activity amounted to 97.82% in data set [1] and 186.2% in data set [2].
The like results for `O=C(CCBr)N1CCN(C(=O)CCBr)CC1` [PIPOBROMAN] were, in that order, 82.4% and 62.45%.
On to `Cc1nc2ccccn2c(=O)c1CCN1CCC(C(=O)c2ccc(F)cc2)CC1` [PIRENPERONE], for which the residual activity in data set [1] was 102.6%; in data set [2] it was 93.87%.
In the same order, the values of `CN1CCN(CC(=O)N2c3ccccc3C(=O)Nc3cccnc32)CC1.Cl.Cl` [PIRENZEPINE HYDROCHLORIDE] are 100.6% and 103.8%.
Consider `CCn1cc(C(=O)O)c(=O)c2cnc(N3CCCC3)nc21` [PIROMIDIC ACID], for which the residual activity in data set [1] is recorded as 101%; in data set [2], 79.57%.
Take `CN1C(C(=O)Nc2ccccn2)=C(O)c2ccccc2S1(=O)=O` [PIROXICAM]: the residual activity in data set [1] is recorded as 87.59%; in data set [2] it was 68.52%.
For `O=C(O)[C@H](O)[C@@](O)(Cc1ccc(O)cc1)C(=O)O` [PISCIDIC ACID], the residual activity worked out at 90.37% in data set [1] and 92.25% in data set [2].
The like results for `COc1cc([C@@H]2c3cc4c(cc3[C@H](O)[C@H]3COC(=O)[C@H]23)OCO4)cc(OC)c1OC` [PODOFILOX] were, in that order, 95.19% and 63.87%.
With `CC(C)=CCc1c2c(c3occ(-c4ccc(O)c(O)c4)c(=O)c3c1O)C=CC(C)(C)O2` [POMIFERIN], the residual activity is on record as 87.87% in data set [1] and 114.2% in data set [2].
The like results for `O=C(O)Cc1nn(Cc2ccc(Br)cc2F)c(=O)c2ccccc12` [PONALRESTAT] were, in that order, 83.62% and 139.9%.
For the molecule `CC(=O)Nc1ccc(OCC(O)CNC(C)C)cc1` (configuration not stated) [PRACTOLOL], the residual activity in data set [1] came out at 99.03%; in data set [2] it was 107.1%.
For the molecule `CS(=O)(=O)[O-].C[n+]1ccccc1C=NO` [PRALIDOXIME MESYLATE], the residual activity in data set [1] came to 98.72%; in data set [2] it was 73.31%.
As to `CCCCOc1ccc(OCCCN2CCOCC2)cc1.Cl` [PRAMOXINE HYDROCHLORIDE], the residual activity was found to be 99.07% in data set [1] and 112% in data set [2].
In the same order, the values of `CC[C@H](C)C(=O)O[C@H]1C[C@H](O)C=C2C=C[C@H](C)[C@H](CC[C@@H](O)C[C@@H](O)CC(=O)[O-])[C@H]21.[Na+]` [PRAVASTATIN SODIUM] are 102.8% and 100.3%.
The like results for `O=C(C1CCCCC1)N1CC(=O)N2CCc3ccccc3C2C1` (configuration not stated) [PRAZIQUANTEL] were, in that order, 125.5% and 162.2%.
For `COc1cc2nc(N3CCN(C(=O)c4ccco4)CC3)nc(N)c2cc1OC.Cl` [PRAZOSIN HYDROCHLORIDE], the residual activity in data set [1] turned out to be 90.48%; in data set [2], 99.58%.
The like results for `CC(=O)OCC(=O)[C@@]1(O)CC[C@H]2[C@@H]3CCC4=CC(=O)C=C[C@]4(C)[C@H]3[C@@H](O)C[C@@]21C` [PREDNISOLONE ACETATE] were, in that order, 106.7% and 63.69%.
In the case of `C[C@]12C=CC(=O)C=C1CC[C@@H]1[C@@H]2[C@@H](O)C[C@@]2(C)[C@H]1CC[C@]2(O)C(=O)CO` [PREDNISOLONE], the residual activity in data set [1] is on record as 110.4%; in data set [2] it was 79.83%.
In the case of `CC(C)C[C@H](CN)CC(=O)O` [PREGABALIN], the residual activity in data set [1] is 101.4%; in data set [2] it was 120.6%.
On to `CC(C)=CCOc1cc2oc(=O)ccc2cc1O` [PRENYLETIN], for which the residual activity was 136% in data set [1] and 176.8% in data set [2].
The like results for `CS(=O)(=O)O.OC(CCN1CCCCC1)(c1ccccc1)c1ccccc1` [PRIDINOL METHANESULFONATE] were, in that order, 95.39% and 95.92%.
The like results for `CCCNC(C)C(=O)Nc1ccccc1C.Cl` (configuration not stated) [PRILOCAINE HYDROCHLORIDE] were, in that order, 74.6% and 87.24%.
As for `CCC1(c2ccccc2)C(=O)NCNC1=O` [PRIMIDONE], the residual activity in data set [1] was found to be 90.17%; in data set [2] it was 78.09%.
The like results for `COC(=O)[C@]1(C)CC[C@]2(C)CC[C@]3(C)C4=CC=C5C(=CC(=O)C(O)=C5C)[C@]4(C)CC[C@@]3(C)[C@@H]2C1` [PRISTIMERIN] were, in that order, 99.45% and 112.2%.
Regarding `COC(=O)[C@]1(C)CC[C@]2(C)CC[C@]3(C)C4=CCc5c(cc(OC(C)=O)c(OC(C)=O)c5C)[C@]4(C)CC[C@@]3(C)[C@@H]2C1` [PRISTIMEROL DIACETATE], the residual activity in data set [1] amounted to 83.45%; in data set [2] it was 94.14%.
In the case of `COC(=O)[C@]1(C)CC[C@]2(C)CC[C@]3(C)C4=CCc5c(cc(O)c(O)c5C)[C@]4(C)CC[C@@]3(C)[C@@H]2C1` [PRISTIMEROL], the residual activity came out at 86.64% in data set [1] and 70.1% in data set [2].
